Laboratory results: patent publication US4753802A (Alza Corporation, priority 1986, dated 1988)
Counter-ions that a name gives are not always drawn. Blank lines part the entries; values can stand above or below the compound they belong to.

How the values were obtained:
[1] = Solubility of verapamil and of osmotic solutes in a common aqueous fluid
Description: (§1) The results of the formulation are given in the accompanying table.

[2] = Osmotic pressure of saturated verapamil hydrochloride solution / of the blend of verapamil plus osmotic solute (vapor pressure osmometry); assay type: physicochemical; details: for π, osmotic pressure of the blend of Sd plus So: verapamil plus the osmotic solute named in the line
Description: as §1

[3] = Cumulative amount of verapamil released over time from formulations with osmotic solutes; assay type: physicochemical; details: verapamil formulated with osmotic solute at equilibrium ratio
Description: as §1

[4] = in common aqueous fluid with verapamil

Compound: O=C(O)CC(O)C(=O)O (stereo not drawn) [Malic Acid]
So, solubility of the osmotic solute [1, 4]: 436 mg/mL

Compound: Insulin: Insulin, listed as osmotic solute in the table
So, solubility of the osmotic solute [1, 4]: 50 mg/mL
ST, total solubility of Sd and So ([1]; verapamil plus osmotic solute in a common aqueous fluid): 197 mg/mL

Compound: O=C(O)CCCCC(=O)O [Adipic Acid]
π, osmotic pressure of the blend of Sd plus So [2]: 13.9 atm

Compound: COc1ccc(CCN(C)CCCC(C#N)(c2ccc(OC)c(OC)c2)C(C)C)cc1OC (stereo not drawn) [Verapamil-HCl, verapamil hydrochloride, reference compound]
osmotic pressure of a saturated aqueous solution ([2]; at 37° C., vapor pressure osmometry): 11 atm
π, osmotic pressure ([2]; verapamil-HCl alone): 10.9 atm
π, osmotic pressure ([2]; verapamil-HCl in AGF): 13.0 atm
π, osmotic pressure ([2]; verapamil-HCl in AIF): 13.3 atm

Compound: COc1ccccc1OCC(O)CO (stereo not drawn) [Guaifenesin, reference compound]
So, solubility of the osmotic solute ([1]; common aqueous fluid): 81 mg/mL

Compound: O=C(O)/C=C/C(=O)O [Fumaric Acid]
So, solubility of the osmotic solute ([1]; common aqueous fluid): 77 mg/mL
π, osmotic pressure of the blend of Sd plus So [2]: 21.4 atm

Compound: OC[C@@H](O)[C@@H](O)[C@H](O)[C@H](O)CO [Mannitol]
So, solubility of the osmotic solute ([1]; common aqueous fluid): 219 mg/mL
π, osmotic pressure of the blend of Sd plus So [2]: 42.8 atm

Compound: O=C[C@H](O)[C@@H](O)[C@@H](O)CO [L-Arabinose]
So, solubility of the osmotic solute ([1]; common aqueous fluid): 473 mg/mL
π, osmotic pressure of the blend of Sd plus So [2]: 110.3 atm

Compound: O=C(O)CCC(=O)O [Disodium Succinate]
π, osmotic pressure of the blend of Sd plus So [2]: 36.6 atm

Compound: COc1ccc(CCN(C)CCCC(C#N)(c2ccc(OC)c(OC)c2)C(C)C)cc1OC (stereo not drawn) [verapamil, reference compound]
osmotic pressure of verapamil in the presence of mannitol ([2]; in the presence of mannitol): raised in the presence of mannitol

The next lines start with results.

So, solubility of the osmotic solute [1, 4]: 457 mg/mL
π, osmotic pressure of the blend of Sd plus So [2]: 87.1 atm
Compound: O=C[C@H](O)[C@@H](O)[C@@H](O)[C@H](O)CO [D-Galactose]

π, osmotic pressure of the blend of Sd plus So [2]: 20.6 atm
Compound: O[C@H]1[C@H](O)[C@@H](O)[C@H](O)[C@@H](O)[C@H]1O [Inositol]
cumulative amount of verapamil released over time [3]: insufficient cumulative amount of verapamil released over time

π, osmotic pressure of the blend of Sd plus So [2]: 22.9 atm
Compound: O=C(O)CCC(=O)O [Succinic Acid]

π, osmotic pressure of the blend of Sd plus So [2]: 100.0 atm
Compound: O=C(O)C(O)C(O)C(=O)O (stereo not drawn) [Sodium Tartrate]

π, osmotic pressure of the blend of Sd plus So [2]: 76.8 atm
Compound: O=C1O[C@H]([C@@H](O)CO)C(O)=C1O [Ascorbic Acid]
